Assay results taken from US20060210491A1, “Flavoured mouth wash composition” (priority 2003, published 2006).
Converted amounts (≈) assume the structure as drawn. Where two headings read alike, the source gives them in different places.

Assays:
Streptococcus mutans R9 = experiment: Minimum inhibitory concentration (MIC), microtitre broth dilution; assay type: cell-based
Description: The minimum inhibitory concentration of an antimicrobial agent (triclosan), and a flavour material or mixture of flavour materials (flavour), was determined by the following method.
A culture of the test strain Streptococcus mutans R9, deposited under the Budapest Treaty with National Collections of Industrial, Food and Marine Bacteria Limited, 23 St Machar Drive, Aberdeen, AB24 3RY, Scotland, UK on 22nd Jan. 2004 and given accession number NCIMB 41209) (may also be obtained from Prof. Philip Marsh, Centre for Applied Microbiology and Research, Salisbury, Wiltshire, SP4 OJG, UK) was grown in 250 ml of PM broth (containing: peptone, 2% w/v; tryptone, 1% w/v; yeast extract, 1% w/v; KCl, 0.25% w/v; of approximately pH 7), anaerobically at 37° C. for 48 hours. The absorbance of the culture at 540 nm (A540) was measured and adjusted if necessary to between 0.2-0.3 by diluting with fresh (i.e. sterile) PM broth. The culture was then diluted in Schaedler Anaerobic Broth (SAB) (Oxoid, Basingstoke, UK) in a ratio of 1 part culture to 25 parts broth to give a stock inoculum culture.
Determination of the MIC of Triclosan Against S. mutans
Triclosan powder was dissolved in AR-grade ethanol, to a concentration of 32,000 ppm (3.2% w/v). This was diluted in Schaedler Anaerobic Broth (SAB) to yield two stock triclosan solutions of concentrations: 320 ppm (0.032% w/v) and 64 ppm (0.0064% w/v).
200 μl of the 320 ppm triclosan stock solution was then added to the first and seventh well of row A on a standard 96-well microtitre plate. All remaining wells in this row were filled with 100% of sterile SAB. The contents of well 1 and the contents of well 7 were independently mixed by repeatedly sucking the contents up and down a pipette tip. 100 μl from well 1 was transferred to the second well of row A and 100 μl from well 7 was transferred to the eighth well of row A. This process was repeated along the row until the sixth and twelfth wells contained 200 μl. After mixing, 100 μl from wells 6 and 12 was discarded to waste. Each successive well in row A therefore contained a two-fold dilution of triclosan compared with the preceding well (i.e. 80 ppm in wells 2 and 8; 40 ppm in wells 3 and 9, etc.), resulting in wells 6 and 12 having a concentration of 5 ppm. A similar series of dilutions was repeated starting with the 64 ppm triclosan stock solution into row B on a microtitre plate. This gave a range of triclosan concentrations from 32 ppm to 1 ppm following the dilution process described. Finally, 100 μl of the pre-diluted stock inoculum culture was added to all wells, thus giving a final volume of 200 μl in each well. Wells 1 and 7 of row A therefore contained a final concentration of 160 ppm triclosan.
A blank plate was prepared for each of the two samples by repeating the process described above, except that 100 μl of SAB was added instead of bacterial culture. This plate was used as the control plate against which the test plate(s) could be read.
Test and control plates were sealed using autoclave tape and incubated for 48 hours anaerobically at 37° C.
A microtitre plate reader (Model MRX, Dynatech Laboratories) was preset to gently agitate the plates and mix the contents. The absorbance at 540 nm “A540” was used as a measure of turbidity resulting from bacterial growth. The control, un-inoculated plate for each set of samples was read first, and the plate reader then programmed to use the control readings to blank all other plate readings for the inoculated plates for the same set of test materials (i.e. removing turbidity and possible colour changes during incubation which are due to chemical interactions). Thus, the corrected readings generated were absorbances resulting from turbidity from bacterial growth. The MIC was taken as the lowest concentration of triclosan required to inhibit growth so that the change in absorbance during the incubation period was <0.2 A540. […]

S. mutans = experiment: Potential synergy of triclosan with flavour materials (growth at sub-MIC concentrations); assay type: cell-based, Streptococcus mutans; details: for Synergy Shown: flavour material with triclosan against S. mutans; for 50% MIC without triclosan: growth of S. mutans with flavour material at 50% of its MIC alone; for 50% MIC and 8 ppm triclosan: growth of S. mutans with flavour material at 50% of its MIC plus 8 ppm triclosan
Description: This example describes a method for determining the potential synergy of triclosan with flavour materials against S. mutans.
A microtitre method using the procedure described below was employed.
Flavour materials were assessed at a final concentration of 50% of the MIC value determined according to Example 1 above, in combination with triclosan at 8 ppm, i.e. about 50% of the MIC value also determined as described in Example 1. Inhibition of growth by this combination of sub-MIC concentrations of flavour material and triclosan was taken to indicate antimicrobial synergy between the flavour material and triclosan.
100 μl of stock solution was added to the appropriate well of a standard 96-well microtitre plate. An equivalent volume of bacterial stock inoculum solution (prepared as in Example 1) was added giving the desired dilution in each well. A blank plate was prepared using the same process except that 100 μl of SAB was added instead of bacterial culture. The protocol for incubation, reading of results and interpretation was as described in Example 1.

[1] = system: protease activity (arg-gingipain) of Porphyromonas gingivalis; experiment: Protease enzyme assay (BAPNA substrate), synergy of flavour material with antimicrobial agent; assay type: biochemical, Porphyromonas gingivalis W50; details: compared with flavour material alone; for Classes of Synergy, increase in inhibition; Antimicrobial Agent Triclosan: flavour material 2500 ppm and 5000 ppm plus sub-MIC triclosan; for Classes of Synergy, increase in inhibition; Antimicrobial Agent Zinc Sulphate: flavour material 2500 ppm and 5000 ppm plus sub-MIC zinc sulphate
Description: The following assay was used to investigate the inhibition of protease activity (arg-gingipain) of the micro-organism Porphyromonas gingivalis (implicated in gum disease) by a flavour material or mixture of flavour materials.
Fresh buffer was prepared immediately before beginning the assay in the following manner: 3.029 g of Tris Base (Sigma, Poole, UK), 394 mg of L-cysteine hydrochloride (Sigma, Poole, UK) and 367.5 mg of calcium chloride dihydrate (Sigma, Poole, UK) were dissolved in 150 ml deionised water. In order to allow for pH differences resulting from any variation in ambient temperature, the temperature of the buffer was taken. The pH of TRIS buffers varies with temperature i.e. Δ pH=−0.031/° C. This assay should be carried out at a temperature of 30° C., with the buffer having a pH of 8.0. Thus, if the measured temperature of the buffer is, for example, 22° C. (room temperature) the pH should be adjusted to 8.24 with 2M hydrochloric acid, in order to give the desired conditions i.e. pH=8.0 at 30° C. After adjusting the pH, the buffer was made up to 200 ml with deionised water and incubated in a water bath at 30° C. for approximately one hour to reach temperature equilibrium before commencing the assay.
The enzyme substrate BAPNA (DL-α-benzoyl-DL-arginyl-p-nitro-anilide) (Sigma) is the synthetic substrate for the protease enzyme produced by the bacterium Porphyromonas gingivalis. The substrate is degraded by enzymes which show specificity for cleaving adjacent to arginine residues. This cleavage yields a yellow nitro-aniline product, which can be readily detected spectrophotometrically at 405 nm. 10.87 mg of the BAPNA substrate was added to 0.5 ml of dimethylsulphoxide (DMSO) and thoroughly dissolved. 9.5 ml of deionised water was then added. The resulting solution was then mixed by vortex and incubated at 30° C. in a water bath for about one hour before commencing the assay to allow temperature equilibration.
Porphyromonas gingivalis W50 ATCC 53978 (American Type Culture Collection (ATCC), P.O. Box 1549, Manassas, Va. 20108, USA) (may also be obtained from Prof. Philip Marsh, Centre for Applied Microbiology and Research, Salisbury, Wiltshire, SP4 OJG, UK) was sub-cultured from frozen stock cultures onto Schaedler Anaerobic Agar (Oxoid, Basingstoke, UK), and supplemented with 5% v/v horse blood (E&O Laboratories, Bonnybridge, Scotland, FK4 2HH). The plates were incubated at 37° C. in an anaerobic cabinet (Don Whitley Scientific, Shipley, UK) for 3-5 days. Single colonies grown on these plates were then inoculated into 250 ml Schaedler Anaerobic Broth (SAB) contained in bottles with cotton wool stoppers. The broths were then incubated in an anaerobic cabinet and allowed to grow for 3-5 days. This generally yielded a culture with an absorbance at 540 nm (A540) between 0.2 and 0.4.
Into 1.5 ml disposable plastic cuvettes was added 0.7 ml of assay buffer, followed by 0.2 ml of BAPNA solution and 0.1 ml of bacterial culture. The cuvettes were capped and mixed, then placed in a Pye Unicam 8620 Spectrophotometer (Pye Unicam, Cambridge, UK). The increase in absorbance at 405 nm […] was recorded over a period of 3 minutes.
The percentage inhibition of protease by a given flavour/flavour material was determined by the formula: [formula]
The synergy between flavour/flavour material and an antimicrobial agent against the protease activity of Porphyromonas gingivalis was then determined in the following manner. Firstly, the MIC value of the antimicrobial agent required to cause any inhibition of protease activity was determined using the method generally described in Example 1 for the determination of the MIC value of triclosan. […] The dilution immediately lower than the MIC value was selected as the sub-IC concentration of antimicrobial agent. All flavour materials were tested at 2500 ppm and 5000 ppm.
The percentage inhibition of protease by the flavour material and antimicrobial agent was determined as described above.

[2] = flavour material against S. mutans R9, 48 hours anaerobically at 37° C., read-out: MIC (ppm)

Row | SMILES | MIC (Streptococcus mutans R9; [2]) | Synergy Shown (S. mutans) | 50% MIC without triclosan (S. mutans) | 50% MIC and 8 ppm triclosan (S. mutans) | Classes of Synergy, increase in inhibition; Antimicrobial Agent Triclosan [1] | Classes of Synergy, increase in inhibition; Antimicrobial Agent Zinc Sulphate [1] | MIC (Streptococcus mutans R9; R9, 48 h) | MIC (Streptococcus mutans R9; R9, 48 h, read-out: MIC for triclosan against S. mutans R9)
1 | CCCCCCCCCO [Alcohol C9, nonanol] | 5000 µg/mL (≈ 34.7 mM) | Yes | + | − | − (− = <15% increase in inhibition) | + (+ = >15% increase in inhibition) |  | 
2 | CCCCCCCCCCO [Alcohol C10, decanol] | 5000 µg/mL (≈ 31.6 mM) | Yes | + | − | + (+ = >15% increase in inhibition) | + (+ = >15% increase in inhibition) |  | 
3 | CCCCCCCCC=O [Aldehyde C9, nonanal] | 5000 µg/mL (≈ 35.2 mM) | Yes | + | − |  |  |  | 
4 | CCCCCCCCCC=O [Aldehyde C10, decanal] | 5000 µg/mL (≈ 32 mM) | Yes | + | − |  |  |  | 
5 | C/C=C/c1ccc(OC)cc1 [Anethole Synthetic, anethole synthetic] |  |  |  |  | − (− = <15% increase in inhibition) | − (− = <15% increase in inhibition) |  | 
6 | CCCC(=O)OCc1ccccc1 [Benzyl Butyrate, benzyl butyrate] |  |  |  |  | − (− = <15% increase in inhibition) |  |  | 
7 | O=C(OCc1ccccc1)c1ccccc1 [Benzyl benzoate, benzyl benzoate] |  |  |  |  | + (+ = >15% increase in inhibition) | − (− = <15% increase in inhibition) |  | 
8 | O=C/C=C/c1ccccc1 [Cinnamic Aldehyde Extra, cinnamic aldehyde] |  | Yes | + | − |  |  | 625 µg/mL (≈ 4.73 mM) | 
9 | CC/C=C\CCO [Cis-3-hexenol, cis-3-hexenol] |  |  |  |  | − (− = <15% increase in inhibition) | + (+ = >15% increase in inhibition) |  | 
10 | COC(=O)C=Cc1ccccc1 [Methyl Cinnamate, methyl cinnamate] |  |  |  |  | + (+ = >15% increase in inhibition) | − (− = <15% increase in inhibition) |  | 
11 | Oc1cc(Cl)ccc1Oc1ccc(Cl)cc1Cl [triclosan, 2′,4,4′-trichloro-2-hydroxy-diphenyl ether, reference compound] |  |  |  |  |  |  |  | 10 to 16 µg/mL (≈ 0.0345 to 0.0553 mM)
